{"source": "patent US20150148235A1", "about": "“HERBICIDE-RESISTANT SUNFLOWER PLANTS WITH MULTIPLE HERBICIDE RESISTANT ALLELES OF AHASL1 AND METHODS OF USE” (NIDERA S.A., priority 2013, published 2015)", "key": {"[1]": {"test_system": "AHAS enzyme, A122T Heterozygous sunflower", "experiment": "AHAS enzyme activity assay, leaf extract", "format": "biochemical, Helianthus annuus", "conditions": "A122T heterozygous hybrid (Set 2)", "procedure": "(§1) Twelve greenhouse grown sunflower plants from each of the lines depicted in Table 21 were bulked and subjected to an AHAS enzyme activity assay via the method of Singh et al. (1988) Anal. Biochem. 171:173-179. Each activity assay was repeated twice. Due to the large number of samples, the experiment was split into two sets (Table 21).\n(§2) Young, actively growing leaves, from four week old plantlets, were ground in a mortar and pestle with liquid N2 and extracted with a buffer composed of 100 mM Pyruvate, 200 mM KH2PO4, 20 mM MgCl2, 2 mM thiamine pyrophosphate and […]. Plant extracts were then spun through a 10 mL Zeba TM desalt spin column (Pierce #89893) as per the manufacturer's recommendation. The inhibition assay was performed as described by Singh et al. (1988) Anal. Biochem. 171:173-179. Assays were conducted in a 96-well format. Fifty μl of inhibitor was added to each well containing 50 μl of soluble protein extract to give final concentrations of 0.78, 1.56, 3.125, 6.25, 12.5, 25, 50 and 100 μM imazamox or 0.78, 1.56, 3.125, 6.25, 12.5, 25, 50 and 100 μM imazapyr. Zero herbicide controls were also included for each line. Reactions were processed as outlined by Singh et al. (1988) Anal. Biochem. 171:173-179. Absorbance was measured at 530 nm. AHAS activity, expressed as the mean of the absorbance values for each treatment, was presented as a percentage of the mean of the zero-herbicide controls."}, "[2]": {"test_system": "AHAS enzyme, WT sunflower line B7", "experiment": "AHAS enzyme activity assay, leaf extract", "format": "biochemical, Helianthus annuus", "conditions": "100 μM", "procedure": "as §1, §2"}, "[3]": {"test_system": "sunflower GM40 (A122T), HA425 (A205V) and progeny", "format": "in vivo, Helianthus annuus", "procedure": "To determine the phenotypic interactions of the resistance gene A122T and the Imr1 gene (A205V) already described in IMI-R sunflowers (HA425), F1, F2 and BC1F1 populations from the cross GM40 (A122T)/HA425 (A205V) were evaluated at two herbicide applications rates (80 and 320 g. a. i. Ha^−1 of imazapyr). […] When F2 and BC1F1 populations were scored at the higher herbicide rate (320 g. a. i. Ha-1), which discriminates both parents, segregation for susceptibility was observed. Only two phenotypic classes could be detected, a resistant class with plants without any injury or slight symptoms and a susceptible phenotype that was killed like the control line HA425."}, "[4]": {"test_system": "sunflower hybrids H1, H2, H3, H5, H6", "conditions": "in vivo"}, "[5]": {"test_system": "sunflower hybrids H1, H2, H3, H5, H6", "experiment": "Field trial Venado Tuerto 2006, imazapyr applied at V8 or R1 stage, Phytotoxicity Index, Example 4", "conditions": "for Mean Phytotoxicity Index (scale 0-50): H5 (L3 × WT, 122/Wild type), 160 g ai/ha applied at R1"}}, "note": "Like-named read-outs stand apart in the source and are kept apart here.", "data": [{"smiles": "COCc1cnc(C2=NC(C)(C(C)C)C(=O)N2)c(C(=O)O)c1", "note": "(stereo not shown) [imazamox]", "values": [{"measurement": "AHAS activity", "setting": "[1]; 50 μM", "result": 30, "unit": "%"}, {"measurement": "AHAS activity", "setting": "[1]; 100 μM", "result": 30, "unit": "%"}, {"measurement": "AHAS activity", "setting": "[2]; WT line B7, Set 1", "result": "17 % relative to the untreated co"}, {"measurement": "AHAS activity", "setting": "[2]; WT line B7, Set 2", "result": "11 % relative to the untreated co"}]}, {"smiles": "CC(C)C1(C)N=C(c2ncccc2C(=O)O)NC1=O", "note": "(stereo not shown) [imazapyr]", "values": [{"measurement": "susceptible plants in F2 and BC1F1 populations of GM40 (A122T)/HA425 (A205V)", "setting": "[3]; 80 g a.i./ha (1x, lower rate)", "result": "No susceptible plants were observed"}, {"measurement": "response of control line HA425", "setting": "[3]; HA425 (A205V), 320 g a.i./ha", "result": "killed"}, {"measurement": "Phytotoxicity Index (scale 0-50)", "setting": "[4]", "result": "greater than 35"}, {"measurement": "Mean Phytotoxicity Index (scale 0-50)", "setting": "[5]; 14 DAT", "result": 11.7}, {"measurement": "Mean Phytotoxicity Index (scale 0-50)", "setting": "[5]; 21 DAT", "result": 23.3}, {"measurement": "Phytotoxicity Index (scale 0-50)", "setting": "[5]; hybrids with at least one A122T allele (A122T/A122T, A122T/A205V, A122/WT), 160 g ai/ha at R1, 14 DAT", "result": "less than 11.7"}]}]}
